Where a name gives a salt, the structure may show the parent alone. Read-outs that look alike come from different tables or passages of the source. Blank lines part the entries; values can stand above or below the molecule they belong to.
Tests used:
[1] = tested on: DU145 human prostate cancer cell line; assay: MTT assay, DU145 cells; assay type: cell-based; settings: read-out: ID50 DU145
Experimental: (§1) The polyamine analogs inhibited prostate cancer cell growth in vitro., as indicated in Table 1 and FIG. 1, FIG. 2, FIG. 3, FIG. 4, and FIG. 5. Tissue cultures and the MTT assay were performed as follows. Additional protocols for in vitro assays are disclosed in International Patent Applications WO 00/66175, WO 00/66528, WO 00/66587, WO 98/17624, Valasinas et al., J. Med. Chem. 44:390-403 (2001), and U.S. Provisional Patent Application Ser. No. 60/329,982 filed Oct. 16, 2001.
(§2) Tissue Culture. Cells were seeded into 75 cm^2 culture flasks with 15 ml of Eagle's minimal essential medium supplemented with 10% fetal calf serum and nonessential amino acids. The flasks were incubated in a humidified 95% air/5% CO2 atmosphere. The cells were grown for at least 24 h to ensure that they are in the log phase of growth and then they were treated with the polyamine analogs. Cells were harvested by treatment for 5 min with STV (saline A, 0.05% trypsin, 0.02% EDTA) at 37° C. The flasks were rapped on the lab bench, pipetted several times and aliquots of cell suspension were withdrawn and counted using a Coulter particle counter that has been standardized for counting each cell line using a hemacytometer.
(§3) MTT Assay: Trypsinized cell suspensions were diluted to seed 80 μl suspensions containing 500 cells in each well of a 96 well Corning microtiter plate and incubated overnight at 37° C. in a humidified incubator in 5% CO2. 20 μl of appropriately diluted stock solution of each drug (i.e., polyamine analog) were added to the middle 8 columns of cell suspension in the microtiter plates. Each drug concentration was run in quadruplicate. Outer columns of the plates were used for buffer controls. Cells were incubated with the drug for 6 days at 37° C. in 5% CO2/H2O atmosphere. 25 μl of 5 mg/ml solution of 3-(4,5-dimethylthiazol-2-yl)-2,5-diphenyl tetrazolium bromide (MTT) were added to each well and incubated for 4 hours at 37° C. in 5% CO2/H2O incubator. Cells were lysed by incubating overnight with 100 μl lysis buffer (500 ml of the lysis buffer contains: 100 g lauryl sulfate (SDS), 250 ml of N,N-dimethylformamide, and 2 ml of glacial acetic acid, made up to volume with water; pH 4.8).
(§4) The color was monitored at room temperature at 570 nm in a E-max Precision Microplate Reader (Molecular Devices Corporation, Sunnyvale, Calif.) and data was analyzed using cell survival software supplied by Molecular Devices Corporation.
(§5) The effects of SL-11218 and SL-11231 on the growth of human prostate tumor cell lines PC-3, DU-145, DuPro and LnCap and on human breast cancer cell lines MCF-7 and MDA-MB-231 in culture were determined by an MTT assay. The growth inhibitory effects were expressed as ID50 value which is defined as the drug concentration required to inhibit 50% cell growth after 5 days of treatment. The results are shown in Table 2; the numbers are the average of the values determined in at least three separate experiments. Both compounds are effective in inhibiting human prostate tumor cell growth in culture.

[2] = tested on: DuPro human prostate cancer cell line; assay: MTT assay, DuPro cells; assay type: cell-based
Experimental: as §1, §2, §3, §4, §5

[3] = tested on: PC-3 human prostate cancer cell line; assay: MTT assay, PC-3 cells; assay type: cell-based
Experimental: as §1, §2, §3, §4, §5

[4] = tested on: MDA-MB-231 human breast cancer cell line; assay: MTT assay, MDA-MB-231 cells; assay type: cell-based; settings: Table 2, 5 days of treatment, average of at least three experiments, read-out: ID50 MDA-MB-231
Experimental: as §3, with “Cells were lysed by incubating overnight with 100 μl lysis buffer (500 ml of the lysis buffer contains: 100 g lauryl sulfate (SDS), 250 ml of N,N-dimethylformamide, and 2 ml of glacial acetic acid, made up to volume with water; pH 4.8).” left out
as §4
(§6) The effects of SL-11218 and SL-11231 on the growth of human prostate tumor cell lines PC-3, DU-145, DuPro and LnCap and on human breast cancer cell lines MCF-7 and MDA-MB-231 in culture were determined by an MTT assay. […] The results are shown in Table 2; the numbers are the average of the values determined in at least three separate experiments. […]

[5] = tested on: BxPC-3 human pancreatic tumor xenograft; assay: Human pancreatic tumor xenograft in nude mice; assay type: in vivo; settings: 10 days break
[6] = tested on: DU-145 human prostate tumor xenograft; assay: DU-145 human prostate tumor xenograft in nude mice; assay type: in vivo
Experimental: (§7) Male athymic nude mice were given s.c. injections of 1×10^6 DU-145 cells on Day 0. Beginning on Day 7, mice were treated i.p q1w×4 for 3 cycles with either saline, 50 mg/kg SL-11218 or 75 mg/kg SL-11218 (pH 7.4) i.p. at 10 ml/kg dosing volume. (Cage issues in the control cage were due to a water bottle leaking and lack of food for 24 hours.) The treatment was carried out once weekly for four weeks (q1w×4) in 3 cycles with a 4 week gap between each cycle. (i.e., cycle 1, administration on days 7, 14, 21, 28; cycle 2, administration on days 49, 56, 63, 70; cycle 3, administration on days 98, 105, 112, 119). All p values were compared to vehicle treated mice.
(§8) The effect of SL-11231 at 12.5 mg/kg for 5 consecutive days against DU-145 human prostate tumor xenograft in nude mice is shown in FIG. 8a. […] (Note that the value reported in Table 1 for SL-11231 versus DU-145 cells is for a single experiment, while the value reported in Table 2 is an average of multiple experiments.)

[7] = Body weight of DU-145 tumor-bearing nude mice under treatment; assay type: in vivo
Experimental: as §7, §8
(§9) In addition, SL-11218 at a dose of 75 mg/kg i.p. for q1w×4 stabilized large (˜2000 mm^3) DU-145 tumor xenograft for 2 cycles with a 4 week gap between each cycle (FIG. 11a). Male athymic nude mice were given s.c. injections of 1×10^6 DU145 cells on Day 0. Beginning on Day 10, mice were given acidified water vehicle orally at 10 ml/kg dosing volume 1× weekly for 8 weeks. On D66 mice began weekly treatment of saline versus SL-11218 i.p. After cycle 1 there was a 27% reduction in tumor volume compared to vehicle treated controls. After cycle 2 there was a significant reduction of 64% with 15% drop in body weight which recovered between cycles. (Cycle 1, administration on days 66, 73, 80, 87; cycle 2, administration on days 115, 122, 129, 136.) BW p values were compared to untreated controls. At d87, p=0.005 for SL-11218. (For saline vehicle, n=9; at d 87 n=8; at d 101, n=4; for SL-11218 n=9; d 80 n=7; d 101 n=5). FIG. 11b indicates the effect of SL-11218 on animal bodyweight (saline vehicle, n=9, at d87, n=8; at d101 n=4; for SL-11218, n=9; at d80, n=7, at d101 n=5; p=0.015 at d98 and 0.001 at d132).

[8] = tested on: DuPro human prostate tumor cell line; assay: Colony forming efficiency (CFE) assay, DuPro; assay type: cell-based; settings: FIG. 6
[9] = tested on: large (~2000 mm^3) DU-145 tumor xenograft; assay: Large DU-145 tumor xenograft in nude mice; assay type: in vivo
Experimental: as §9

[10] = tested on: MCF-7 human breast cancer cell line; assay: MTT assay, MCF-7 cells; assay type: cell-based; settings: for IC50: Table 2, 5 days of treatment, average of at least three experiments, read-out: ID50 MCF-7
Experimental: as §3, §4, §5

[11] = tested on: LnCap human prostate cancer cell line; assay: MTT assay, LnCap cells; assay type: cell-based; settings: read-out: ID50 LnCap
Experimental: as §1, §2
MTT Assay: Trypsinized cell suspensions were diluted to seed 80 μl suspensions containing 500 cells in each well of a 96 well Corning microtiter plate and incubated overnight at 37° C. in a humidified incubator in 5% CO2. […]
as §4, §6

[12] = tested on: Tsu-pr1 human prostate cancer cell line; assay: MTT assay, Tsu-pr1 cells; assay type: cell-based; settings: Table 1, read-out: ID50 Tsu-pr1
Experimental: as §1
as §2, with “Cells were harvested by treatment for 5 min with STV (saline A, 0.05% trypsin, 0.02% EDTA) at 37° C.” left out, “hemacytometer. […]” for “hemacytometer.”
as §4

[13] = tested on: Tsu-pr1-ADR human prostate cancer cell line; assay: MTT assay, Tsu-pr1-ADR cells; assay type: cell-based; settings: Table 1, read-out: ID50 Tsu-pr1-ADR
Experimental: as §1
as §2, with “Cells were harvested by treatment for 5 min with STV (saline A, 0.05% trypsin, 0.02% EDTA) at 37° C.” left out, “hemacytometer. […]” for “hemacytometer.”
as §4

[14] = tested on: L1210 leukemia or Lewis lung carcinoma; settings: L1210 leukemia or Lewis lung carcinoma grafted in athymic nude mice; cited from earlier work
[15] = multiple injection (ip) schedules; cited from earlier work
[16] = Table 1, DU145, SL-11231 value from a single experiment
[17] = Table 1, human prostate cancer cell line DuPro, read-out: ID50 DuPro
[18] = Table 1, PC-3, read-out: ID50 PC-3
[19] = Table 2, 5 days of treatment, average of at least three experiments
[20] = Table 2, 5 days of treatment, average of at least three experiments, read-out: ID50 DUPRO
[21] = Table 2, 5 days of treatment, average of at least three experiments, read-out: ID50 PC3

IC50 [1, 16]: 60 nM
IC50 [2, 17]: 630 nM
IC50 [3, 18]: > 31200 nM
SMILES: CCNCC1CC1CNCC1CC1CNCC1CC1CNCC (mixture of isomers) [SL-11215]

IC50 [4]: > 31200 nM
IC50 [1, 16]: 63 nM
IC50 [1, 19]: 60 nM
IC50 [2, 17]: 260 nM
IC50 [2, 20]: 260 nM
IC50 [3, 18]: > 31200 nM
IC50 [3, 21]: > 31200 nM
IC50 [10]: 4250 nM
SMILES: CCNCC1CC1CNCCCCNCC1CC1CNCC.Cl.Cl.Cl.Cl (mixture of isomers) [SL-11218]
effect on human pancreatic tumor growth ([5]; 50 mg/kg i.p. q1d×5, 2 cycles): effectively inhibit human pancreatic tumor growth
effect on tumor growth ([6]; 50 mg/kg i.p. q1w×4, 3 cycles): temporarily arrested tumor growth
effect on tumor growth ([6]; 75 mg/kg i.p. q1w×4, 3 cycles): arrested tumor growth throughout the treatment period of 120 days
bodyweight loss ([7]; 75 mg/kg i.p. q1w×4, 3 cycles, 120 days, DU-145 xenograft): without appreciable bodyweight loss
drop in body weight ([7]; 75 mg/kg i.p. q1w×4, after cycle 2, large DU-145 xenograft, recovered between cycles): 15%
cytotoxicity by CFE assay [8]: marked cytotoxicity
effect on large tumor xenograft ([9]; 75 mg/kg i.p. q1w×4, 2 cycles): stabilized
reduction in tumor volume compared to vehicle treated controls ([9]; 75 mg/kg i.p. q1w×4, after cycle 1): 27%
reduction in tumor volume compared to vehicle treated controls ([9]; 75 mg/kg i.p. q1w×4, after cycle 2): 64%
activity against MCF-7 breast cancer cells ([10]; in words): some activity

IC50 [4]: > 31200 nM
IC50 [1, 16]: 80 nM
IC50 [1, 19]: 120 nM
IC50 [2, 17]: 380 nM
IC50 [2, 20]: 380 nM
IC50 ([11]; Table 1, LnCap): 150 nM
IC50 [11, 19]: 150 nM
IC50 [3, 18]: > 31200 nM
IC50 [3, 21]: > 31200 nM
IC50 [10]: > 31200 nM
SMILES: CCNCCCCNCC1CC1CNCCCCNCC1CC1CNCCCCNCC (mixture of isomers) [SL-11231]
effect on human pancreatic tumor growth ([5]; 12.5 mg/kg i.p. q1d×5, 2 cycles): effectively inhibit human pancreatic tumor growth
effect on tumor growth ([6]; 12.5 mg/kg for 5 consecutive days): efficiently inhibits tumor growth
effect on animal bodyweight ([7]; 12.5 mg/kg for 5 consecutive days, DU-145 xenograft): without appreciable effects on animal bodyweight

IC50 [1, 16]: 10 nM
IC50 [2, 17]: 200 nM
IC50 [12]: 70 nM
IC50 ([11]; Table 1, LnCap): 210 nM
IC50 [13]: > 31200 nM
IC50 [3, 18]: 4170 nM
SMILES: CCNCCCCNCC1CC1CNCCCCNCC (racemic) [SL-11093]

IC50 [1, 16]: 200 nM
IC50 [2, 17]: 340 nM
IC50 [3, 18]: 400 nM
SMILES: CCNCCCCNCCCCNCCCCNCCCCNCC1CC1CNCCCCNCCCCNCCCCNCCCCNCC (racemic) [SL-11241]

IC50 [1, 16]: 610 nM
IC50 [2, 17]: > 31200 nM
IC50 [3, 18]: > 31200 nM
SMILES: NCCCCNCC1CC1CNCCCCN (racemic) [SL-11245]

IC50 [1, 16]: 11200 nM
IC50 [2, 17]: > 31200 nM
IC50 [3, 18]: > 31200 nM
SMILES: CC(C)(C)NCCCCNCC1CC1CNCCCCNC(C)(C)C (racemic) [SL-11247]

SMILES: CCNCCCCNCCCCNCCCCNCC [BE-4-4-4, ^1N,^14N-bisethylhomospermine]
increase in lifespan as compared to control [14]: ca. 6 fold
maximum tolerated dose (MTD) [15]: ca. 6 mg/kg

IC50 [2, 17]: 200 nM
IC50 [3, 18]: 300 nM
SMILES: CCNCCCCNCC1CC1CNCCCCNCCCCNCC1CC1CNCCCCNCCCCNCC1CC1CNCCCCNCC (stereo not drawn) [SL-11232, 10,11-25,26-40,41-ter[(E)-1,2-cyclopropyl]-3,8,13,23,28,33,38,43,48-decaazapentacontane decahydrochloride]

IC50 ([3]; Homo sapiens, Table 1, PC-3, read-out: ID50 PC-3): > 31200 nM
SMILES: CCNCCCCNCC1CC1CNCCCCN (stereo not drawn) [SL-11242]
